Test results reported in US20140134658A1, “PSA ENZYMATIC ACTIVITY: A NEW BIOMARKER FOR ASSESSING PROSTATE CANCER AGGRESSIVENESS” (NORTHWESTERN UNIVERSITY, AN ILLINOIS NOT FOR PROFIT …, priority 2010, published 2014).

What was measured:
[1] = molecular target: T1, PSA (Homo sapiens, UniProt P07288); experiment: Optical (fluorogenic) assay of peptide substrate cleavage by PSA; format: biochemical; conditions: fluorogenic AMC-labelled substrate, 0.4 mM in buffer A
T1 construct: purchased Scripps Laboratories
T1 sequence (P07288 25-261): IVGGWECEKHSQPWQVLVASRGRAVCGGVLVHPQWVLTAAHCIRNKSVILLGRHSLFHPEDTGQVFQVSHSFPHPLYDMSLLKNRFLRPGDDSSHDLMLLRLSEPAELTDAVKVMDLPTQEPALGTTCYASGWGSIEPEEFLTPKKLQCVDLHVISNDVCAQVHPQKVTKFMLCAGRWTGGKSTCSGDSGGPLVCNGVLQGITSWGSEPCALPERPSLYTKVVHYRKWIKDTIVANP
Experimental: Serial dilution of PSA (reagent #5)+substrate
The desired clinical urine samples were thawed at room temperature, gently vortexed, and briefly centrifuged (<20 seconds) to accumulate sample at the bottom of the tube. Each 50 μL sample was transferred via pipette to the 96-well microplate. The PSA standards (20 μL) were prepared and loaded in the same way. A multichannel pipette was used to transfer the substrate (150 μL) one column at a time and the start time recorded. Once the entire plate was loaded, it was inserted into the microplate reader and analyzed every 10 min. for 2-12 hrs.
Serial dilution of AMC (reagent #6) to determine linear fluorescence range: Reagent #6 (35.9 μL) was diluted to 2.0 mL buffer A to give a concentration of 0.4 mM. A 1:2 dilution was performed to give a final concentration range of 0.4 mM-0.024 uM. This was loaded into a 96-well microplate in duplicate and scanned one time. Serial dilution of PSA (reagent #5)+substrate: 20 μL of each standard PSA standard solution (see general procedure for protein dilution above) was loaded in duplicate into a 96-well microplate followed by 150 μL of peptide substrate in buffer A (see general procedure above) and scanned for at least 3 hrs. Serial dilution of α-Chymotrypsin (reagent #8)+substrate: Same as experiment 2 but with reagent #8. […]

[2] = test system: esterases; experiment: Sacrificial ester control for esterases in a urine sample with peptide substrate; format: biochemical; conditions: urine sample + peptide substrate 0.4 mM, with and without ester 40 mM; single experiment
Experimental: This was tested by running a urine sample (+peptide substrate; 0.4 mM) with and without a “sacrificial ester” (alanine methyl ester; 40 mM). The idea is that if there are esterases in the sample, adding a relatively high concentration of ester will prevent them from cleaving the peptide substrate and we should therefore see a higher turnover of substrate.

Mor-HSSK-Hiv-Q-AMC
cleavage of substrate by PSA [1]: show cleavage by PSA

COC(=O)[C@H](C)N [alanine methyl ester]
effect of sacrificial ester on turnover of peptide substrate [2]: no difference between the sample run with ester and that run without ester

Mor-HSSK-Hic-Q-AMC
cleavage of substrate by PSA [1]: show cleavage by PSA
